Test results from patent US7432247B2, “Methods of cardioprotection using dichloroacetate in combination with an inotrope” (The Governors of the University of Alberta, priority 2002, dated 2008).
Values joined by “and” are separate entries in the source; they are usually repeats but may differ in a detail not shown here. Equal entries are not always repeated.

Tests used:
Type in all cases: in vivo, human
[1] = Plasma DCA levels after 50 mg/kg bolus in adult CABG patients (Example A); conditions: 50 mg/kg Na+ dichloroacetate, 1 hour following administration, n = 8 adult patients
Protocol: […] Based on the pharmacokinetics of DCA, we anticipated that this would produce a plasma concentration of approximately 1 mM. The study consisted of 8 DCA-treated patients and 10 placebo-treated patients.
[…] The coded solution was made such that a dose of 1 ml/kg provides the appropriate dose of DCA or placebo. Based on the pharmacokinetics of DCA, this was expected to result in a plasma level of DCA in the therapeutic range of (1 mM). All blood samples were analyzed by HPLC for DCA concentration.
Plasma samples were processed for DCA levels using a high performance liquid chromatography (HPLC) technique that separated the DCA from other plasma constituents. In brief, 20 μl of plasma sample was injected into a Beckman Gold HPLC containing a IonoBpher 5A column (250×4.6 mm LxID) and a AX Guard Column. The mobile phase of the column consisted of 10^-3 M pyromellitate buffer (pH=4.0). The flow rate of the HPLC was set at 3.0 ml/min and the DCA eluted from the column was detected by comparing DCA elution times to acetate, monochloroacetate, and trichloroacetate standards. Heart ventricular biopsy samples were taken at 0, and 20 minutes, and at 1 hour, following release of the cross clamp and reperfusion of the heart muscle, and immediately frozen in liquid N2. Blood samples were also taken at various intervals during the reperfusion period between 0 to 24 hours post-surgery.

[2] = Mortality in the adult CABG study (Example A); conditions: DCA group, 8 adult patients, 50 mg/kg bolus
Protocol: DCA or saline was administered to 18 patients undergoing elective cardiac bypass grafting surgery (CABG) in a double blinded randomized manner DCA (50 mg/kg in 100 ml of saline) or placebo was injected into the aortic root, immediately prior to removing aortic cross clamp. Based on the pharmacokinetics of DCA, we anticipated that this would produce a plasma concentration of approximately 1 mM. The study consisted of 8 DCA-treated patients and 10 placebo-treated patients.
The intervention involved DCA (50 mg/kg) or placebo injected into the aortic root immediately prior to removing aortic cross clamp. The coded solution was made such that a dose of 1 ml/kg provides the appropriate dose of DCA or placebo. Based on the pharmacokinetics of DCA, this was expected to result in a plasma level of DCA in the therapeutic range of (1 mM). All blood samples were analyzed by HPLC for DCA concentration.

[3] = DCA plasma levels in pediatric heart surgery patients, bolus and 24 hour infusion (Example C); conditions: for Average Optimum Mean of DCA Plasma Levels, mM at 1 hr / Average Optimum Mean of DCA Plasma Levels, mM at 6 hr / Average Optimum Mean of DCA Plasma Levels, mM at 12 hr / Average Optimum Mean of DCA Plasma Levels, mM at 24 hr: patients with greatest degree of clinical benefits
Protocol: (§1) In this trial, 53 infants were recruited to participate in a study, of which 51 patients met inclusion criteria after parental consent. Two dosing groups resulted from the study team changing the dosing protocol after the data from the initial 10 patients were analyzed. The data from patients number 1 to number 10 was analyzed for DCA therapeutic blood levels and therapeutic effect. A recommendation by the research team was made to increase the bolus dose of DCA and to decrease the infusion dose of DCA to maintain a DCA dose range of 1 mM for 24 hours. The intent was to administer the new protocol at patient number 20. The 1997 Epicore power calculations were based on separation of the study groups patients into group A of n=20 patients and Group B of n=31 patients
(§2) DCA (50 mg/kg) or placebo was injected into the aortic root immediately prior to removing aortic cross clamp. The coded solutions were made such that a dose of 1 ml/kg provided either a DCA therapeutic level of 1 mM plasma concentration of DCA, or a placebo solution. Immediately thereafter, an infusion of DCA at 25 mg/kg/hr or placebo in the same volume was initiated and run for 24 hours. Based on the pharmacokinetics of DCA, this was expected to maintain plasma levels of DCA in the therapeutic range of (0.2-1 mM). However, the plasma concentrations of DCA were below 1 mM after the first hour interval, and that the 24 hour plasma concentrations were elevated above 1 mM DCA levels at the 24 hour interval, a decision was made to modify the dosing protocol. This change in dosing protocol was approved by the Ethics Committee, but not implemented until patient number 24. All blood samples were analyzed by HPLC for DCA concentration. • (ii) Group B
(§3) DCA (100 mg/kg) or placebo was injected into the aortic root immediately prior to removing aortic cross clamp. The coded solutions were made such that a dose of 1 ml/kg provided either a DCA therapeutic level of 1 mM plasma concentration of DCA, or a placebo solution. Immediately thereafter, an infusion of DCA at 12.5 mg/kg/hr or placebo in the same volume was initiated and run for 24 hours. Based on the pharmacokinetics of DCA, this was expected to maintain plasma levels of DCA in the therapeutic range of (0.2-1 mM). All blood samples were analyzed by HPLC for DCA concentration.
Arterial blood samples were obtained from patients at the following times:
c. One hour after discontinuing cardiopulmonary bypass.
d. Six hours after discontinuing cardiopulmonary bypass
e. Twelve hours after discontinuing cardiopulmonary bypass.
f. Twenty four hours after discontinuing cardiopulmonary bypass.
Blood samples were collected from indwelling arterial lines into citrate-containing tubes (0.5 ml blood samples). The samples were spun in the microfuge, the plasma separated, and frozen immediately for later analysis. All plasma samples were stored at −80 degrees centigrade, until further processing. Plasma glucose and lactate were determined using a Sigma glucose kit and a spectrophotometric assay involving lactate dehydrogenase respectively. Plasma fatty acid levels were measured using an ELISA system and WAKO free fatty acid kit.

[4] = Pediatric heart surgery study, DCA bolus and infusion vs placebo: inotrope score, ICU time, ventilator time (Example C); parameters: reduction of Inotrope Score compared to placebo: concentration or dose not given beside the values; conditions: for average decrease in Inotrope Score per patient compared to placebo: over the 24 hour period
Protocol: This study was a randomized, placebo-controlled, double blinded, single surgeon, study of the use of DCA in 51 high-risk pediatric patients requiring heart surgery to correct complex congenital heart lesions.
as §1, §2, §3
In both the operating room at the end of cardiopulmonary bypass and in the intensive care unit, parenteral drugs were scored on an hourly basis with 1 point allotted for each level for each bolus or infusion given within the previous hour within the first 24 hours post-operatively. Thus at the end of 24 hours, high scores indicated poorer cardiac function.

[5] = Observed side effects of DCA in patients
[6] = Group A: 50 mg/kg bolus and 25 mg/kg/hr infusion
[7] = Group B: 100 mg/kg bolus and 12.5 mg/kg/hr infusion
[8] = Group A: 50 mg/kg bolus and 25 mg/kg/hour infusion
[9] = Group A: 50 mg/kg bolus and 25 mg/kg/hour infusion, 23 patients
[10] = Group B: 100 mg/kg bolus and 12.5 mg/kg/hour infusion
[11] = Group B: 100 mg/kg bolus and 12.5 mg/kg/hour infusion, 24 patients

SMILES: O=C(O)C(Cl)Cl [DCA, dichloroacetate]
- Plasma Dichloroacetate Levels [1]: approximately 1 mM
- Plasma Dichloroacetate Levels ([1]; listed as Dichloroacetate): 0.948 ± 0.061 mM
- mortality [2]: no mortalities
- optimum mean DCA plasma level ([3]; Example C, Group B, 1 to 6 hour interval): 1 mM
- Average DCA Plasma Levels, mM at 6 hr [3, 6]: 1.134 mM
- Average DCA Plasma Levels, mM at 12 hr [3, 6]: 1.771 mM
- Average Optimum Mean of DCA Plasma Levels, mM at 1 hr [3, 6]: 1.0 mM
- Average Optimum Mean of DCA Plasma Levels, mM at 6 hr [3, 6]: 0.916 mM
- Average Optimum Mean of DCA Plasma Levels, mM at 12 hr [3, 6]: 1.52 mM and 1.523 mM
- Average Optimum Mean of DCA Plasma Levels, mM at 24 hr [3, 6]: 2.29 mM and 2.288 mM
- Average DCA Plasma Levels, mM at 1 hr [3, 7]: 1.131 mM
- Average DCA Plasma Levels, mM at 6 hr [3, 7]: .894 mM
- Average DCA Plasma Levels, mM at 12 hr [3, 7]: 1.427 mM
- Average DCA Plasma Levels, mM at 24 hr [3, 7]: 2.231 mM
- Average Optimum Mean of DCA Plasma Levels, mM at 1 hr [3, 7]: 1.012 mM
- Average Optimum Mean of DCA Plasma Levels, mM at 6 hr [3, 7]: 1.0 mM
- Average Optimum Mean of DCA Plasma Levels, mM at 12 hr [3, 7]: 1.0 mM
- Average Optimum Mean of DCA Plasma Levels, mM at 24 hr [3, 7]: 1.0 mM
- decrease of ventilator time compared to placebo [4, 8]: 47%
- reduction of ventilator time compared to placebo [4, 8]: 46 h
- decrease of time in ICU compared to placebo [4, 9]: 41%
- reduction of time in ICU compared to placebo [4, 9]: 60 h
- reduction of Inotrope Score compared to placebo ([4]; Group A, by 1 hour): 50%
- reduction of Inotrope Score compared to placebo ([4]; Group A, by 12 hours): 45%
- reduction of Inotrope Score compared to placebo ([4]; Group A, by 24 hours): 38%
- average decrease in Inotrope Score per patient compared to placebo ([4]; Group A): 44%
- decrease of ventilator time compared to placebo [4, 10]: 23%
- reduction of ventilator time compared to placebo [4, 10]: 18 h and 19 h
- decrease of time in ICU compared to placebo [4, 11]: 40%
- reduction of time in ICU compared to placebo [4, 11]: 50 h
- reduction of Inotrope Score compared to placebo ([4]; Group B, by 1 hour): 57%
- reduction of Inotrope Score compared to placebo ([4]; Group B, by 12 hours): 49%
- reduction of Inotrope Score compared to placebo ([4]; Group B, by 24 hours): 45%
- average decrease in Inotrope Score per patient compared to placebo ([4]; Group B): 51%
- side-effects ([5]; patients): not have significant side-effects, although some patients experience mild drowsiness
- adverse effects in previous (pilot) studies ([5]; previous studies): no adverse effects
